Experimental data taken from ChEMBL document CHEMBL1138970, “Structure-activity relationships of [2',5'-bis-O-(tert-butyldimethylsilyl)-beta-D-ribofuranosyl]- 3'-spiro-5' '-(4' '-amino-1' ',2' '-oxathiole-2' ',2' '-dioxide)thymine derivatives as inhibitors of HIV-1 reverse transcriptase dimerization” (J Med Chem, 2006).

Experiments:
[1] = system: Human immunodeficiency virus 1; assay: Antiviral activity against HIV1 in MT4 cells; type: functional, organism-based; settings: Human immunodeficiency virus 1, MT4
[2] = Inhibition of MT4 cell viability; type: cell-based; settings: human, MT4 cells
[3] = target: T1, Human immunodeficiency virus type 1 reverse transcriptase (Human immunodeficiency virus 1, UniProt Q72547); assay: Inhibition of FLAG-p66/HIS-p51-mediated HIV1 reverse transcriptase dimerization
[4] = target: T1, Human immunodeficiency virus type 1 reverse transcriptase; assay: Inhibition of HIV1 reverse transcriptase RNA-dependent DNA polymerase activity

Row | SMILES | EC50 [1] | CC50 [2] | IC50 [3] | IC50 [4]
1 | Cc1cn([C@@H]2O[C@H](CO[Si](C)(C)C(C)(C)C)[C@@]3(OS(=O)(=O)C=C3N)[C@H]2O[Si](C)(C)C(C)(C)C)c(=O)n(CCCN)c1=O | 520 nM | 14 µM | 7.2 µM | 4.4 µM
2 | Cc1cn([C@@H]2O[C@H](CO[Si](C)(C)C(C)(C)C)[C@@]3(OS(=O)(=O)C=C3N)[C@H]2O[Si](C)(C)C(C)(C)C)c(=O)n(/C=C/CO)c1=O | 40 nM | 4 µM | 1.9 µM | 0.5 µM
3 | Cc1cn([C@@H]2O[C@H](CO[Si](C)(C)C(C)(C)C)[C@@]3(OS(=O)(=O)C(/C=C/CO)=C3N)[C@H]2O[Si](C)(C)C(C)(C)C)c(=O)[nH]c1=O | 6630 nM | 17 µM | 16 µM | 4.8 µM
4 | Cc1cn([C@@H]2O[C@H](CO[Si](C)(C)C(C)(C)C)[C@@]3(OS(=O)(=O)C=C3N)[C@H]2O[Si](C)(C)C(C)(C)C)c(=O)n(C)c1=O | 60 nM | 240 µM | 5.7 µM | 1.3 µM
5 | Cc1cn([C@@H]2O[C@H](CO[Si](C)(C)C(C)(C)C)[C@@]3(OS(=O)(=O)C=C3N)[C@H]2O[Si](C)(C)C(C)(C)C)c(=O)n(CCCN(CC(=O)O)CC(=O)O)c1=O | 8320 nM | 123 µM | 5.2 µM | 10.6 µM
6 | Cc1cn(C2OC(CO[Si](C)(C)C(C)(C)C)CC2O[Si](C)(C)C(C)(C)C)c(=O)n(CC(=O)O)c1=O (stereo unspecified) | 6390 nM | 17 µM | 1.1 µM | 5.7 µM
7 | CC(C)(C)[Si](C)(C)OC[C@H]1O[C@@H](n2nncc2C(N)=O)[C@H](O[Si](C)(C)C(C)(C)C)[C@]12OS(=O)(=O)C=C2N | 520 nM | 15 µM | 10.1 µM | 8.4 µM
8 | Cc1cn([C@@H]2O[C@H](CO[Si](C)(C)C(C)(C)C)[C@@]3(OS(=O)(=O)C=C3N)[C@H]2O[Si](C)(C)C(C)(C)C)c(=O)n(CCc2ccccc2)c1=O | 840 nM | 2 µM | 3 µM | 0.8 µM
9 | Cc1cn([C@@H]2O[C@H](CO[Si](C)(C)C(C)(C)C)[C@@]3(OS(=O)(=O)C=C3N)[C@H]2O[Si](C)(C)C(C)(C)C)c(=O)n(CC(=O)O)c1=O | 6220 nM | > 155 µM | 5.5 µM | 3.2 µM
10 | Cc1cn([C@@H]2O[C@H](CO[Si](C)(C)C(C)(C)C)[C@@]3(OS(=O)(=O)C=C3N=C(N)N)[C@H]2O[Si](C)(C)C(C)(C)C)c(=O)[nH]c1=O | 960 nM | 87 µM | 14 µM | 3.8 µM
11 | COC(=O)C(=O)NC1=CS(=O)(=O)O[C@@]12[C@@H](COCc1ccccc1)O[C@@H](n1cc(C)c(=O)n(C)c1=O)[C@@H]2O[Si](C)(C)C(C)(C)C | 4500 nM | 4 µM | 7.2 µM | 5.4 µM
12 | Cc1cn([C@@H]2O[C@H](CO[Si](C)(C)C(C)(C)C)[C@@]3(OS(=O)(=O)C=C3N)[C@H]2O[Si](C)(C)C(C)(C)C)c(=O)[nH]c1=O | 60 nM | 14 µM | 6.7 µM | 1 µM
13 | Cc1cn([C@@H]2O[C@H](CO[Si](C)(C)C(C)(C)C)[C@@H](O)[C@H]2O[Si](C)(C)C(C)(C)C)c(=O)n(CC(=O)O)c1=O | 5350 nM | 19 µM | 6.6 µM | 6.6 µM
14 | Cc1cn([C@@H]2O[C@H](CO[Si](C)(C)C(C)(C)C)[C@@]3(OS(=O)(=O)C=C3N)[C@H]2O[Si](C)(C)C(C)(C)C)c(=O)n(CC(=O)N[C@@H](C)C(=O)O)c1=O | 5700 nM | > 250 µM | 12 µM | 3.1 µM
15 | CCc1cn([C@@H]2O[C@H](CO[Si](C)(C)C(C)(C)C)[C@@]3(OS(=O)(=O)C=C3N)[C@H]2O[Si](C)(C)C(C)(C)C)c(=O)[nH]c1=O | 60 nM | 20 µM | 8.5 µM | 3.4 µM
16 | Cc1cn([C@@H]2O[C@H](CO[Si](C)(C)C(C)(C)C)[C@@]3(OS(=O)(=O)C=C3N)[C@H]2O[Si](C)(C)C(C)(C)C)c(=O)n(/C=C\CO)c1=O | 320 nM | 36 µM | 3.1 µM | 1.6 µM
17 | CN(C)C(=O)c1cnnn1[C@@H]1O[C@H](CO[Si](C)(C)C(C)(C)C)[C@@]2(OS(=O)(=O)C=C2N)[C@H]1O[Si](C)(C)C(C)(C)C | 40 nM | 12 µM | 11.7 µM | 6.4 µM
18 | CNC(=O)CCCCn1c(=O)c(C)cn([C@@H]2O[C@H](CO[Si](C)(C)C(C)(C)C)[C@@]3(OS(=O)(=O)C=C3N)[C@H]2O[Si](C)(C)C(C)(C)C)c1=O | 50 nM | > 250 µM | 6.8 µM | 3.2 µM
19 | Cc1cn([C@@H]2O[C@H](CO[Si](C)(C)C(C)(C)C)[C@@]3(OS(=O)(=O)C=C3N)[C@H]2O[Si](C)(C)C(C)(C)C)c(=O)n(CC(N)=O)c1=O | 70 nM | 18 µM | 7 µM | 1.7 µM
20 | Cc1cn([C@@H]2O[C@H](CO[Si](C)(C)C(C)(C)C)[C@@]3(OS(=O)(=O)C(I)=C3N)[C@H]2O[Si](C)(C)C(C)(C)C)c(=O)[nH]c1=O | 120 nM | 4 µM | 3.5 µM | 8 µM
21 | Cc1cn([C@@H]2O[C@H](CO[Si](C)(C)C(C)(C)C)[C@@]3(OS(=O)(=O)C=C3N)[C@H]2O[Si](C)(C)C(C)(C)C)c(=O)n(CC2CO2)c1=O (stereo partly specified) | 110 nM | 56 µM | 5 µM | 2.4 µM
22 | Cc1cn([C@@H]2O[C@H](CO[Si](C)(C)C(C)(C)C)[C@@]3(OS(=O)(=O)C=C3N)[C@H]2O[Si](C)(C)C(C)(C)C)c(=O)n(CCCO)c1=O | 30 nM | 4 µM | 1.6 µM | 0.7 µM
23 | Cc1cn([C@@H]2O[C@H](CO[Si](C)(C)C(C)(C)C)[C@@]3(OS(=O)(=O)C=C3N)[C@H]2O[Si](C)(C)C(C)(C)C)c(=O)n(CC(=O)N[C@@H](CC(=O)O)C(=O)O)c1=O | 6290 nM | > 250 µM | 11.9 µM | 9.1 µM
24 | CCCn1c(=O)c(C)cn([C@@H]2O[C@H](CO[Si](C)(C)C(C)(C)C)[C@@]3(OS(=O)(=O)C=C3N)[C@H]2O[Si](C)(C)C(C)(C)C)c1=O | 260 nM | 75 µM | 4.3 µM | 0.5 µM
